Data on one compound can be found in US20250280829A1, “USE OF (5S)-3-[3-(3-CHLORO-2-FLUOROPHENOXY)-6-METHYLPYRIDAZIN-4-YL]-5-(2-CHLORO-4-METHYLBENZYL)-5,6-DIHYDRO-4H-1,2,4-OXADIAZINE FOR CONTROLLING UNWANTED MICROORGANISMS” (Bayer Aktiengesellschaft, priority 2022, published 2025).

The test system of assay [1] is Pyrenophora teres. The assay can be described thus: In vivo preventive test on Pyrenophora teres (net blotch on barley). As to conditions: 500 ppm of active ingredient; preventive spray on barley; evaluated 10 days after inoculation. As for the experimental part:
(§1) a-3. In Vivo Preventive Test on Pyrenophora teres (Net Blotch on Barley) [table] The active ingredients were made soluble and homogenized in a mixture of Dimethyl sulfoxide/Acetone//Tween® 80 and then diluted in water to the desired concentration. The young plants of barley were treated by spraying the active ingredient prepared as described above. Control plants were treated only with an aqueous solution of Acetone/Dimethyl sulfoxide/Tween® 80. After 24 hours, the plants were contaminated by spraying the leaves with an aqueous suspension of Pyrenophora teres spores.

The test system of a further assay is Fusarium graminearum. Format: in vivo. Conditions: 500 ppm of active ingredient; preventive spray on wheat; evaluated 5 days after inoculation.
In the next assay the test system is Ustilago avenae. The assay can be described thus: Ustilago avenae in vitro cell test. In kind it is cell-based. Conditions: 96 h, 20 ppm of active ingredient, liquid culture, 4 days of incubation, read-out: efficacy (inhibition of fungal growth). The procedure:
a-10. Ustilago avenae In Vitro Cell Test [table] Fungicides were solubilized in DMSO and the solution used to prepare the required range of concentrations. The final concentration of DMSO used in the assay was ≤1%. Inoculum was prepared from a pre-culture of U. avenae grown in liquid medium and diluted to the desired optical density (OD). Fungicides were evaluated for their ability to inhibit mycelium growth in liquid culture assay. The compounds were added in the desired concentrations to culture medium containing the spore suspension. After 4 days of incubation, the fungicidal efficacy of compounds was determined by spectrometric measurement of mycelium growth. Inhibition of fungal growth was determined by comparing the absorbance values in wells containing the fungicides with the absorbance in control wells without fungicides.

Another assay has as its system Pyricularia Oryzae. As to the kind of experiment: microbe, parasite or virus in culture. As to conditions: 120 h, read-out: efficacy (inhibition of fungal growth). In kind it is cell-based.
Assay [2] deals with Septoria tritici. As to the kind of experiment: Septoria tritici in vitro cell test. In kind it is cell-based. Conditions: Zymoseptoria tritici, 168 h; 20 ppm of active ingredient; liquid culture; 7 days incubation; read-out: efficacy (inhibition of fungal growth). As for the experimental part:
a-15. Septoria tritici In Vitro Cell Test [table] Fungicides were solubilized in DMSO and the solution used to prepare the required range of concentrations. The final concentration of DMSO used in the assay was ≤1%. A spore suspension of S. tritici was prepared and diluted to the desired spore density. Fungicides were evaluated for their ability to inhibit spore germination and mycelium growth in liquid culture assay. The compounds were added in the desired concentration to the culture medium with spores. […] Inhibition of fungal growth was determined by comparing the absorbance values in wells containing the fungicides with the absorbance in control wells without fungicides.

The test system of assay [3] is Septoria tritici. The assay can be described thus: In vivo preventive test on Septoria tritici (leaf spot on wheat). Conditions: 500 ppm of active ingredient; preventive spray on wheat; evaluated 17 to 19 days after inoculation. As for the experimental part:
as §1, with “a-4.” for “a-3.”, “Septoria tritici (Leaf Spot” for “Pyrenophora teres (Net Blotch”, “Wheat)” for “Barley)”, “wheat” for “barley”, “Septoria tritici” for “Pyrenophora teres”, “spores. The contaminated wheat plants were incubated for 72 hours at 17° C. and at 100% relative humidity and then for 14 to 16 days at 20° C. and at 90% relative humidity.” for “spores.”

Assay [4] deals with Pyrenophora teres. As to the kind of experiment: Pyrenophora teres in vitro cell test. In kind it is cell-based. Conditions: 144 h, 20 ppm of active ingredient, liquid culture, 6 days incubation, read-out: efficacy (inhibition of fungal growth). As for the experimental part:
(§2) a-12. Pyrenophora teres In Vitro Cell Test [table] Fungicides were solubilized in DMSO and the solution used to prepare the required range of concentrations. The final concentration of DMSO used in the assay was ≤1%. A spore suspension of P. teres was prepared and diluted to the desired spore density. Fungicides were evaluated for their ability to inhibit spore germination and mycelium growth in liquid culture assay. The compounds were added in the desired concentration to the culture medium with spores. After 6 days incubation, fungi-toxicity of compounds was determined by spectrometric measurement of mycelium growth. Inhibition of fungal growth was determined by comparing the absorbance values in wells containing the fungicides with the absorbance in control wells without fungicides.

The subject of another assay is Alternaria alternata. The assay can be described thus: Alternaria alternata in vitro cell test. In kind it is cell-based. Conditions: 120 h, 20 ppm of active ingredient, liquid culture, 5 days incubation, read-out: efficacy (inhibition of fungal growth). As for the experimental part: as §2, with “a-7. Alternaria alternata” for “a-12. Pyrenophora teres”, “A. alternata” for “P. teres”, “5” for “6”

For another assay, the system named is Fusarium culmorum. The assay can be described thus: Fusarium culmorum in vitro cell test. Format: cell-based. As to conditions: 96 h, 20 ppm of active ingredient, liquid culture, 4 days incubation, read-out: efficacy (inhibition of fungal growth). As for the experimental part: a-8. Fusarium culmorum In Vitro Cell Test
Fungicides were solubilized in DMSO and the solution used to prepare the required range of concentrations. The final concentration of DMSO used in the assay was ≤1%.
A spore suspension of F. culmorum was prepared and diluted to the desired spore density.
Fungicides were evaluated for their ability to inhibit spore germination and mycelium growth in liquid culture assay. The compounds were added in the desired concentration to the culture medium with spores. After 4 days incubation, fungi-toxicity of compounds was determined by spectrometric measurement of mycelium growth. Inhibition of fungal growth was determined by comparing the absorbance values in wells containing the fungicides with the absorbance in control wells without fungicides.

Assay [5] has as its system Colletotrichum lindemuthianum. The assay can be described thus: Colletotrichum lindemuthianum in vitro cell test. As to conditions: 144 h, 20 ppm of active ingredient, liquid culture, 6 days incubation, read-out: efficacy (inhibition of fungal growth). In kind it is cell-based. The procedure: as §2, with “a-11. Colletotrichum lindemuthianum In” for “a-12. Pyrenophora teres In”, “of C. lindemuthianum” for “of P. teres”, “inhibit spores” for “inhibit spore”

In another assay the test system is Alternaria brassicae. As to the kind of experiment: In vivo preventive test on Alternaria brassicae (leaf spot on radish or cabbage). As to conditions: 500 ppm of active ingredient; preventive spray on radish or cabbage; evaluated 3 to 4 days after inoculation. The procedure:
as §1, with “a-1.” for “a-3.”, “Alternaria brassicae (Leaf Spot” for “Pyrenophora teres (Net Blotch”, “Radish or Cabbage)” for “Barley)”, “radish or cabbage” for “barley”, “Alternaria brassicae” for “Pyrenophora teres”, “spores. The contaminated radish or cabbage plants were incubated for 3 to 4 days at 20° C. and at 100% relative humidity.” for “spores.”

In assay [6] the test system is Botrytis cinerea. As to the kind of experiment: Botrytis cinerea in vitro cell test. As to conditions: 144 h, 20 ppm of active ingredient, liquid culture, 6 days incubation, read-out: efficacy (inhibition of fungal growth). In kind it is cell-based. The procedure:
as §2, with “a-14. Botrytis cinerea” for “a-12. Pyrenophora teres”, “B. cinerea” for “P. teres”

A further assay deals with Fusarium virguliforme. As to the kind of experiment: Fusarium virguliforme in vitro cell test. Format: cell-based. As to conditions: 144 h, 20 ppm of active ingredient, liquid culture, 6 days incubation, read-out: efficacy (inhibition of fungal growth). The procedure: as §2, with “a-13. Fusarium virguliforme” for “a-12. Pyrenophora teres”, “F. virguliforme” for “P. teres”

The next assay relates to Sphaerotheca fuliginea. As to the kind of experiment: In vivo preventive test on Sphaerotheca fuliginea (powdery mildew on cucurbits). Conditions: 500 ppm of active ingredient; preventive spray on gherkin; evaluated 8 days after inoculation. As for the experimental part: (§3) a-5. In Vivo Preventive Test on Sphaerotheca fuliginea (Powdery Mildew on Cucurbits) [table] The active ingredients were made soluble and homogenized in a mixture of Dimethyl sulfoxide/Acetone//Tween® 80 and then diluted in water to the desired concentration. The young plants of gherkin were treated by spraying the active ingredient prepared as described above. Control plants were treated only with an aqueous solution of Acetone/Dimethyl sulfoxide/Tween® 80. After 24 hours, the plants were contaminated by spraying the leaves with an aqueous suspension of Sphaerotheca fuliginea spores.

The test system of assay [7] is Colletotrichum lindemuthianum. As to the kind of experiment: In vivo preventive test on Colletotrichum lindemuthianum (leaf spot on bean). As to conditions: 500 ppm of active ingredient; preventive spray on bean; evaluated 7 days after inoculation. As for the experimental part: as §1, with “a-6.” for “a-3.”, “Colletotrichum lindemuthianum (Leaf Spot” for “Pyrenophora teres (Net Blotch”, “Bean)” for “Barley)”, “bean” for “barley”, “Colletotrichum lindemuthianum” for “Pyrenophora teres”, “spores. The contaminated bean plants were incubated for 24 hours at 20° C. and at 100% relative humidity and then for 6 days at 20° C. and at 90% relative humidity.” for “spores.”

Assay [8] has as its system Botrytis cinerea. The assay can be described thus: In vivo preventive test on Botrytis cinerea (grey mould). Conditions: 500 ppm of active ingredient; preventive spray on gherkin or cabbage; evaluated 4 to 5 days after inoculation. The procedure: as §3, with “a-2.” for “a-5.”, “Botrytis cinerea (Grey Mould)” for “Sphaerotheca fuliginea (Powdery Mildew on Cucurbits)”, “gherkin or cabbage” for “gherkin”, “Botrytis cinerea” for “Sphaerotheca fuliginea”, “spores. The contaminated gherkin plants were incubated for 4 to 5 days at 17° C. and at 90% relative humidity. The contaminated cabbage plants were incubated for 4 to 5 days at 20° C. and at 100% relative humidity.” for “spores.”

Broadly, the inhibition is the percentage by which the read-out fell short of the control. On to `Cc1ccc(C[C@H]2CON=C(c3cc(C)nnc3Oc3cccc(Cl)c3F)N2)c(Cl)c1` [compound (I), (5S)-3-[3-(3-chloro-2-fluorophenoxy)-6-methylpyridazin-4-yl]-5-(2-chloro-4-methylbenzyl)-5,6-dihydro-4H-1,2,4-oxadiazine], for which the efficacy result (with Pyrenophora teres [1]; in the assay with Fusarium graminearum; in the assay on Septoria tritici [3]; with Alternaria brassicae; in the assay with Sphaerotheca fuliginea; in assay [7]) was “at least 70%” in each case. The efficacy entry in the assay with Botrytis cinerea [8] was “at least 70%”. For the same compound, the inhibition at 20 ppm in the assay on Ustilago avenae, in the assay with Pyricularia Oryzae, in the assay on Septoria tritici [2], with Pyrenophora teres [4], in the assay on Alternaria alternata and in the assay on Fusarium culmorum was at least 70% in each case. Moreover, the inhibition at 20 ppm (in [5]; with Botrytis cinerea [6]; in the assay with Fusarium virguliforme) was at least 70% throughout.
